Laboratory results taken from BindingDB's records for doi:10.1074/jbc.M109.067967 (University of Michigan, 2010).

Assays:
[1] = biological target: Plasminogen activator inhibitor 1 (Mus musculus, UniProt P22777); assay: Enzymatic Assay; settings: pH 7.8; 23 °C
[2] = biological target: T1, Plasminogen activator inhibitor 1 (Homo sapiens, UniProt P05121); assay: Enzyme activity assay using human and murine PAI-1.; settings: pH 7.8
[3] = biological target: T1, Plasminogen activator inhibitor 1; assay: Enzymatic Assay; settings: pH 7.8; 23 °C

| SMILES | IC50 [1] | IC50 [2] | IC50 [3] |
| --- | --- | --- | --- |
| O=C(O)c1cc(O)c2c(c1)[C@H]([C@H]1c3cc(C(=O)O)cc(O)c3C(=O)c3c(O[C@@H]4O[C@H](CO)[C@@H](O)[C@H](O)[C@H]4O)cccc31)c1cccc(O[C@@H]3O[C@H](CO)[C@@H](O)[C@H](O)[C@H]3O)c1C2=O [Sennoside A, G] |  |  | 51000 nM |
| O=C(O)c1cc(O)c(O)c(O)c1 [Gallic Acid, F] |  |  | 6600 nM |
| O=C(OCC1OC(OC(=O)c2cc(O)c(O)c(OC(=O)c3cc(O)c(O)c(O)c3)c2)C(OC(=O)c2cc(O)c(O)c(OC(=O)c3cc(O)c(O)c(O)c3)c2)C(OC(=O)c2cc(O)c(O)c(OC(=O)c3cc(O)c(O)c(O)c3)c2)C1OC(=O)c1cc(O)c(O)c(OC(=O)c2cc(O)c(O)c(O)c2)c1)c1cc(O)c(O)c(OC(=O)c2cc(O)c(O)c(O)c2)c1 (centres undefined) [Tannic Acid, A] | 4.1 nM | 6.6 nM | 7 nM |
| O=C(O[C@@H]1Cc2c(O)cc(O)cc2O[C@@H]1c1cc(O)c(O)c(O)c1)c1cc(O)c(O)c(O)c1 [(-)-Epigallocatechin-3-o-gallate] |  |  | 91 nM |
| O=C(Oc1cc(O)cc2c1C[C@@H](OC(=O)c1cc(O)c(O)c(O)c1)[C@@H](c1cc(O)c(O)c(O)c1)O2)c1cc(O)c(O)c(O)c1 [Epigallocatechin-3,5-Digallate, C] |  |  | 330 nM |
| O=C1c2ccc(O)c(O)c2C(=O)c2c(O)ccc(O)c21 [Quinalizarin, E] |  |  | 4400 nM |

Other lines, results leading:

| IC50 [1] | IC50 [2] | IC50 [3] | SMILES |
| --- | --- | --- | --- |
| 79 nM | 14 nM |  | O=C(OCC(COC(=O)c1cc(O)c(O)c(O)c1)OC(=O)c1cc(O)c(O)c(O)c1)c1cc(O)c(O)c(O)c1 [CDE-082] |
| 162 nM | 44 nM |  | O=C(OCCOC(=O)c1cc(O)c(O)c(O)c1)c1cc(O)c(O)c(O)c1 [CDE-008] |
|  |  | 3800 nM | Oc1c(Cl)cc(Cl)c(Cl)c1Cc1c(O)c(Cl)cc(Cl)c1Cl [SMR000058356] |
| 644 nM | 116 nM |  | O=C(O[C@@H]1CCCC[C@H]1OC(=O)c1cc(O)c(O)c(O)c1)c1cc(O)c(O)c(O)c1 [CDE-034] |
| 132 nM | 20 nM |  | O=C(O[C@H]1CCCC[C@H]1OC(=O)c1cc(O)c(O)c(O)c1)c1cc(O)c(O)c(O)c1 [CDE-031] |
| 758 nM | 74 nM |  | O=C(Oc1ccccc1OC(=O)c1cc(O)c(O)c(O)c1)c1cc(O)c(O)c(O)c1 [CDE-056] |
